Data published in PubChem BioAssay (NCI).
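Each compound was tested at five concentrations against cells in 96-well plates for 48 hours. Here, GI50 denotes the concentration required for 50% inhibition of growth. The concentration for full growth arrest is given as TGI.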

Experiments:
Test in all cases: NCI-60 cell line screen, 48 h
CCRF-CEM leukemia = tested on: CCRF-CEM leukemia
SK-OV-3 ovarian = tested on: SK-OV-3 ovarian
SF-268 CNS = tested on: SF-268 CNS
SW-620 colon = tested on: SW-620 colon
UACC-257 melanoma = tested on: UACC-257 melanoma
HL-60(TB) leukemia = tested on: HL-60(TB) leukemia
HCT-116 colon = tested on: HCT-116 colon
K-562 leukemia = tested on: K-562 leukemia
MDA-MB-435 = tested on: MDA-MB-435
NCI/ADR-RES ovarian = tested on: NCI/ADR-RES ovarian

Row | SMILES | TGI (CCRF-CEM leukemia) | TGI (SK-OV-3 ovarian) | TGI (SF-268 CNS) | TGI (SW-620 colon) | TGI (UACC-257 melanoma) | TGI (HL-60(TB) leukemia) | TGI (HCT-116 colon) | TGI (K-562 leukemia) | TGI (MDA-MB-435) | TGI (NCI/ADR-RES ovarian) | GI50 (MDA-MB-435) | GI50 (CCRF-CEM leukemia) | GI50 (SK-OV-3 ovarian) | GI50 (SF-268 CNS) | GI50 (SW-620 colon) | GI50 (UACC-257 melanoma) | GI50 (HL-60(TB) leukemia) | GI50 (K-562 leukemia) | GI50 (NCI/ADR-RES ovarian)
1 | CCC(C)C(N)C(=O)NC(CC(N)=O)C(=O)NC(CC(C)C)C(=O)NC(CCCCN)C(=O)NC(C)C(=O)NC(CC(C)C)C(=O)NC(C)C(=O)NC(C)C(=O)NC(CC(C)C)C(=O)NC(C)C(=O)NC(CCCCN)C(=O)NC(CCCCN)C(=O)NC(C(=O)NC(CC(C)C)C(N)=O)C(C)CC (stereo not drawn) | 18.6 µM | 33.7 µM | 14.7 µM | 37.4 µM | 19.1 µM | 7.23 µM | 29 µM | 36.3 µM | – | – | – | – | – | – | – | – | – | – | –
2 | O=c1c2ccccc2[nH]n1Cc1ccccc1 | > 100 µM | > 100 µM | > 100 µM | > 100 µM | > 100 µM | > 100 µM | > 100 µM | > 100 µM | > 100 µM | > 100 µM | – | – | – | – | – | – | – | – | –
3 | COc1cc(OC)cc(-c2ccc(-c3ccc(C(=N)N)cn3)o2)c1 | 4.6 µM | 3.34 µM | 3.62 µM | 3.25 µM | 3.3 µM | 4.38 µM | – | 2.98 µM | 2.99 µM | 38.5 µM | 1.55 µM | 2.06 µM | 1.91 µM | 1.86 µM | 1.67 µM | 1.76 µM | 2.12 µM | 1.32 µM | 6.53 µM
4 | Cc1[nH]c(=O)[nH]c(=O)c1/C=C/C(=O)O (tested in a mixture with another compound) | > 625 µM | > 625 µM | > 625 µM | > 625 µM | > 625 µM | > 625 µM | > 625 µM | > 625 µM | – | > 625 µM | – | – | – | – | – | – | – | – | –
5 | OC1c2ccccc2CCC1CN1CCN(CCOC(c2ccc(F)cc2)c2ccc(F)cc2)CC1 (stereo not drawn) | 15.1 µM | > 100 µM | 39 µM | 38.2 µM | 35.3 µM | – | 20.8 µM | 27.5 µM | 80.1 µM | 35.3 µM | – | – | – | – | – | – | – | – | –
6 | CSCC[C@@H]1C(=O)N(C)[C@H](C(C)(C)C)N1C(=O)c1ccccc1 | > 100 µM | > 100 µM | > 100 µM | > 100 µM | > 100 µM | > 100 µM | > 100 µM | > 100 µM | – | > 100 µM | – | – | – | – | – | – | – | – | –
7 | CSc1nc(C)cc(Nc2ccc(O)c(CN3CCOCC3)c2)n1 | > 100 µM | > 100 µM | > 100 µM | > 100 µM | > 100 µM | > 100 µM | > 100 µM | > 100 µM | > 100 µM | > 100 µM | – | – | – | – | – | – | – | – | –
8 | N#CC(N=Nc1ccccc1C(=O)O)C(N)=O (stereo not drawn) | > 100 µM | – | – | > 100 µM | > 100 µM | > 100 µM | > 100 µM | > 100 µM | > 100 µM | > 100 µM | – | – | – | – | – | – | – | – | –
9 | COc1cc2c3cc1Oc1c(O)c(OC)cc4c1C(Cc1ccc(O)c(c1)Oc1ccc(cc1)CC3N(C)CC2)N(C)CC4 (stereo not drawn) | 36.7 µM | 40.1 µM | 31.9 µM | 16.7 µM | 33.4 µM | 48.4 µM | 22.5 µM | 10.3 µM | – | – | – | – | – | – | – | – | – | – | –
10 | CC(CC(N)C(=O)O)C(=O)O (stereo not drawn) | > 100 µM | – | > 100 µM | > 100 µM | > 100 µM | > 100 µM | > 100 µM | > 100 µM | > 100 µM | > 100 µM | – | – | – | – | – | – | – | – | –
11 | COc1cccc(/C=N/NC(=O)CSCC(=O)N/N=C/c2cccc(OC)c2OC)c1OC | – | > 100 µM | > 100 µM | > 100 µM | > 100 µM | > 100 µM | > 100 µM | > 100 µM | > 100 µM | > 100 µM | – | – | – | – | – | – | – | – | –
12 | CN(C)c1ccc(/C=C/c2ccc(S(N)(=O)=O)cc2)cc1 | > 100 µM | 31.4 µM | > 100 µM | 92.9 µM | > 100 µM | > 100 µM | 67.2 µM | > 100 µM | 23.7 µM | 40 µM | 7.63 µM | 46 µM | – | 7.16 µM | – | – | > 100 µM | > 100 µM | –
13 | CC1(C)[C@@H]2CC[C@]1(C)[C@H](OC(=O)/C=C/c1ccccc1)C2 | 41.6 µM | 84.2 µM | 33.9 µM | 30.6 µM | 63.3 µM | 40.5 µM | 38.1 µM | 38.1 µM | 77.7 µM | 37.1 µM | – | – | – | – | – | – | – | – | –
14 | COc1nc2cccc(C(O)c3ccccc3)c2nc1-c1ccccc1 (stereo not drawn) | 10.8 µM | – | 33.4 µM | 16.6 µM | 26.9 µM | 18 µM | 16.2 µM | 19.7 µM | 4.79 µM | 15.9 µM | – | – | – | – | – | – | – | – | –
15 | O=C1C=CC2OC(c3ccccc3)C(O)C2O1 (stereo not drawn) | 11.6 µM | 39.5 µM | 15.6 µM | 9.87 µM | 18.5 µM | 3.29 µM | 10.6 µM | 59.7 µM | – | 15.2 µM | – | – | – | – | – | – | – | – | –
16 | COc1cc(C(=O)O[C@H](C(=O)NCCCNC(=O)[C@@H](OC(=O)c2cc(OC)cc3c(C)cccc23)[C@]2(C)CO2)[C@]2(C)CO2)c2cccc(C)c2c1 | – | 1.98 µM | – | – | 0.872 µM | < 0.01 µM | – | 0.923 µM | 0.503 µM | 0.97 µM | – | < 0.01 µM | 0.501 µM | < 0.01 µM | < 0.01 µM | 0.27 µM | < 0.01 µM | < 0.0359 µM | 0.154 µM
17 | CC(=O)c1[nH]c(NC(C)C)c(C(=S)Nc2ccccc2)c1N | 72.9 µM | > 100 µM | 65.9 µM | > 100 µM | 65.8 µM | > 100 µM | 64.4 µM | > 100 µM | 49 µM | > 100 µM | – | – | – | – | – | – | – | – | –
18 | Cc1c[n+]2c3ccccc3c3ccccc3c2s1 | 28.4 µM | > 71.4 µM | 3.27 µM | > 75.5 µM | 18.3 µM | > 61.6 µM | > 70.1 µM | 44.5 µM | – | – | – | – | – | – | – | – | – | – | –
19 | C=CCN1/C(=C(\C#N)c2nc3ccccc3[nH]2)Sc2c1nc[nH]c2=O | > 100 µM | > 100 µM | > 100 µM | > 100 µM | > 100 µM | > 100 µM | > 100 µM | > 100 µM | – | – | – | – | – | – | – | – | – | – | –
20 | OCC1COc2cc(Cl)c(Cl)cc2O1 (stereo not drawn) | > 10 µM | > 10 µM | > 10 µM | > 10 µM | – | > 10 µM | > 10 µM | > 10 µM | > 10 µM | > 10 µM | – | – | – | – | – | – | – | – | –
21 | COc1cc(C2c3cc4c(cc3[C@@H](Nc3cccc(CO)c3)C3COC(=O)[C@H]23)OCO4)cc(OC)c1O (stereo partly drawn) | 0.732 µM | 9.04 µM | 14.5 µM | > 41.3 µM | 5.04 µM | 0.343 µM | 11.6 µM | 5.87 µM | – | 59.2 µM | – | – | – | – | – | – | – | – | –
